Data reported in US11591326B2, “Inhibitors of protein arginine methyltransferase 5 (PRMT5), pharmaceutical products thereof, and methods thereof” (PHARMABLOCK SCIENCES (NANJING), INC., priority 2018, dated 2023).
Read-outs that look alike come from different tables or passages of the source.

Tests used:
SNU475 = assay: Liver cancer panel proliferation inhibition, SNU475; assay type: cell-based; settings: Homo sapiens
Protocol: (§1) Inhibitory ability of compounds synthesized on the proliferation of three panels of cancer cell lines, including 5 breast cancer, 6 liver cancer, and 3 lung cancer cell lines were evaluated. Exponentially growing cells were seeded in the media of choice at various cell densities in 384-well plates with 20 ul per well and incubated overnight at 37° C., 5% CO2 incubator. Compounds were prepared as 10-point, 3-fold serial dilutions in DMSO, beginning at 6 mM. 1 μl of DMSO solutions from the compound stock plates were added to 99 ul of cell media (final top concentration of compound in the assay was 30 uM and the final concentration of DMSO was 0.5%). 20 μL of compound solutions in media were added to each well of plates with cells seeded. After adding compound solutions, assay plates were incubated for 8 and 12 days, respectively, at 37° C., 5% CO2. During this incubation period, cell media was changed every 4 days. After removing old media from cell plates, 40 ul of media with testing compounds dissolved, which were prepared by adding 1 ul of compound DMSO serial solutions to 199 ul of cell media, were added to the assay plates with the same layout as they were initially prepared. After 8 or 12 days, cell viability was measured using the CellTiter-Glo assay kit from Promega (Madison, Wis., USA) by quantitating the ATP present in the cell cultures. 20 μL of CellTiter-Glo reagent was added to each well of the cell plates. Luminescence was read after 10 minute of incubation with the Envision multiple plate reader from PerkinElmer (Waltham, Mass., USA). The concentrations of compounds inhibiting cell viability by 50% (IC50 values) were determined using a sigmoidal dose-response model (variable slopes, four parameters) in Prism 7 (La Jolla, Calif., USA).

[1] = tested on: Mantle Cell Lymphoma Z-138 cell; assay: Cell proliferation inhibition, Z-138 (CCK8); assay type: cell-based; settings: Homo sapiens, Z-138, 96 h, Z-138, incubated 4 days
Description: Materials and Cell Lines: Z-138, U251, and MIA PaCa2 cells were purchased from ATCC (American Type Culture Collection, Manassas, Va.) and Chinese Academy of Science (Shanghai, China). Iscove's Modified Dulbecco's Medium (IMDM), Dulbecco's Modified Eagle Medium (DMEM), penicillin-streptomycin, heat inactivated fetal bovine serum (FBS), and horse serum was purchased from ThermoFisher, Waltham, Mass., USA. Corning 96- and 384-well cell culture plates were purchased from ThermoFisher, Waltham, Mass., USA. Cell-Titer Glo® was purchased from Promega Corporation, Madison, Wis., USA.
In order to evaluate the inhibitory ability of compounds synthesized on the proliferation of the Mantle Cell Lymphoma Z-138 cell, exponentially growing cells were seeded in the media of IMDM with 10% horse serum and 1% penicillin-streptomycin at a concentration of 30000 cells/ml in a 96-well plate with 100 ul per well and incubated overnight at 37° C., 5% CO2 incubator. Compounds were prepared as 10-point, 3-fold serial dilutions in DMSO, beginning at 6 mM. 1 μl of DMSO solutions from the compound stock plates were added to 99 ul of cell culture media (final top concentration of compound in the assay was 30 uM and the final concentration of DMSO was 0.5%). 100 μL of compound solutions in media were added to each well of Z-138 cell plates. After adding compound solutions, assay plates were incubated for 4 days at 37° C., 5% CO2. Cell viability was measured using the Cell Counting Kit-8 (CCK8) obtained from the Beyotime Biotehnology, Shanghai, China. 20 ul of CCK8 reagent was added to each well of the Z-138 assay plate which was incubated at 37° C. for 2 hours. O.D. at 450 nm was read with the FlexStation 3 microplate reader (Molecular Devices, Sunnyvale, Calif. 94089 USA). The concentrations of compounds inhibiting cell viability by 50% (IC50 values) were determined using a sigmoidal dose-response model (variable slopes, four parameters) in Prism 7 (La Jolla, Calif.).

[2] = Pharmacokinetic study in rat; assay type: in vivo, Male SD rats; settings: male, SD; for plasma clearance / Vd: 2 mg/kg, Rat PK (IV) 2 mpk; for plasma clearance: read-out: Clint (converted); for Vd / AUC(0-t) / Cmax / Tmax / bioavailability / half-life: plasma; for Vd: read-out: Vss; for AUC(0-t) / Cmax / Tmax / bioavailability / half-life: 10 mg/kg, Rat PK (PO) 10 mpk; for half-life: read-out: T½ (converted)
Protocol: Male SD rats (185-265 g; purchased from Shanghai SLAC laboratory animal CO. LTD; n=18, with 3 per compound) were treated with a single dose of compounds being tested at 2 mg/kg by intravenous tail-vein injection and 10 mg/kg by oral gavage administration, with both doses formulated in 5% DMSO+45% PEG400 in water. Animals upon PO administration were fasted overnight and fed 4 hours after dosing. Animals upon IV administration were free access to food and water. The study was performed in accordance with the guidelines and standards of the Association for Assessment and Accreditation of Laboratory Animal Care (AAALAC International) and the National Institutes of Health.
The animal is restrained manually. Approximately 150 μL whole blood/time point is collected in K2EDTA tube via tail vein. Blood sample will be put on ice and centrifuged at 2000 g for 5 min to obtain plasma sample within 15 minutes. Plasma samples were stored at approximately −70° C. until analysis. An aliquot of 20 μL sample was added with 200 μL IS (Diclofenac, 100 ng/mL) in ACN. The mixture was vortexed for 10 min and centrifuged at 5800 rpm for 10 min. An aliquot of 1 μL supernatant was injected for LC-MS/MS analysis. For 10×-diluted sample, an aliquot of 2 μL sample was added with 18 μL blank plasma. The sample preparation procedure is same with no-diluted sample. Standard calibration curves were constructed by analyzing a series of control plasma aliquots containing Diclofenac (100 ng/mL) as an internal standard and 1.0-3,000 ng/mL testing compounds. Compound concentrations were determined with UPLC-MS/MS-22 (Triple Quad™ 6500).

BT474 = assay: Breast cancer panel proliferation inhibition, BT474; assay type: cell-based; settings: Homo sapiens
Protocol: as §1

MHCC-97H = assay: Liver cancer panel proliferation inhibition, MHCC-97H; assay type: cell-based; settings: Homo sapiens, MHCC97H
Protocol: as §1

SNU398 = assay: Liver cancer panel proliferation inhibition, SNU398; assay type: cell-based; settings: Homo sapiens
Protocol: as §1

MDA-MB-453 = assay: Breast cancer panel proliferation inhibition, MDA-MB-453; assay type: cell-based; settings: Homo sapiens
Protocol: as §1

[3] = SNU-475, 192 h, SNU475, 8 days, read-out: IC50 (μM) 8 days
[4] = SNU-475, 288 h, SNU475, 12 days, read-out: IC50 (μM) 12 days
[5] = BT-474, 192 h, BT474, 8 days, read-out: IC50 (μM) 8 days
[6] = BT-474, 288 h, BT474, 12 days, read-out: IC50 (μM) 12 days
[7] = 192 h, 8 days, read-out: IC50 (μM) 8 days
[8] = 288 h, 12 days, read-out: IC50 (μM) 12 days
[9] = SNU-398, 192 h, SNU398, 8 days, read-out: IC50 (μM) 8 days
[10] = SNU-398, 288 h, SNU398, 12 days, read-out: IC50 (μM) 12 days
[11] = 192 h, MDA-MB-453, 8 days, read-out: IC50 (μM) 8 days
[12] = 288 h, MDA-MB-453, 12 days, read-out: IC50 (μM) 12 days

| SMILES | IC50 (SNU475; [3]) | IC50 (SNU475; [4]) | IC50 [1] | plasma clearance [2] | Vd [2] | AUC(0-t) [2] | Cmax [2] | Tmax [2] | bioavailability [2] | half-life [2] | IC50 (BT474; [5]) | IC50 (BT474; [6]) | IC50 (MHCC-97H; [7]) | IC50 (MHCC-97H; [8]) | IC50 (SNU398; [9]) | IC50 (SNU398; [10]) | IC50 (MDA-MB-453; [11]) | IC50 (MDA-MB-453; [12]) |
| --- | --- | --- | --- | --- | --- | --- | --- | --- | --- | --- | --- | --- | --- | --- | --- | --- | --- | --- |
| CC(=O)N1CCC(Nc2ccc3c(c2)C(=O)N(C[C@H](O)CN2CCc4ccccc4C2)CCO3)CC1 [Compound 52a, (R)-7-((1-acetylpiperidin-4-yl)amino)-4-(3-(3,4-dihydroisoquinolin-2(1H)-yl)-2-hydroxypropyl)-3,4-dihydrobenzo[f][1,4]oxazepin-5(2H)-one] | 0.29 µM | 0.35 µM | 0.014 µM | 35.3 mL/min/kg | 5.02 ± 0.389 L/kg | 2260 ± 764 ng·h/mL | 563 ± 233 ng/mL | 1.33 ± 0.577 h | 48.1 ± 16.1% | 3.02 ± 0.413 h | 0.041 µM | 0.03 µM | 0.023 µM | 0.024 µM | 0.45 µM | 0.12 µM | 0.14 µM | 0.06 µM |
| CC(=O)N1CCC(Nc2cc(C(=O)NC[C@H](O)CN3CCc4ccccc4C3)ncn2)CC1 [Compound C3, reference compound] | 0.66 µM | 0.86 µM | 0.07 µM | 35.5 mL/min/kg | 2.17 ± 0.0643 L/kg | 1400 ± 601 ng·h/mL | 364 ± 82.5 ng/mL | 1.67 ± 0.577 h | 30.5 ± 13% | 1.5 ± 0.123 h | 0.14 µM | 0.056 µM | 0.089 µM | 0.086 µM | 0.83 µM | 0.41 µM | 1.22 µM | 0.16 µM |
| CC(=O)N1CCC(Nc2ccc3c(c2)C(=O)N(C[C@H](O)CN2CCc4ccccc4C2)CC3)CC1 [Compound 24a, (R)-7-((1-acetylpiperidin-4-yl)amino)-2-(3-(3,4-dihydroisoquinolin-2(1H)-yl)-2-hydroxypropyl)-3,4-dihydroisoquinolin-1(2H)-one] | 0.21 µM | 0.32 µM | 0.014 µM | 31.7 mL/min/kg | 7.15 ± 2.86 L/kg | 3280 ± 805 ng·h/mL | 798 ± 247 ng/mL | 1.17 ± 0.764 h | 62 ± 15.1% | 3.13 ± 0.415 h | 0.11 µM | 0.057 µM | 0.02 µM | 0.029 µM | 0.54 µM | 0.25 µM | 0.28 µM | 0.19 µM |
